In ChEMBL document CHEMBL5550140, “Emerging ferroptosis inhibitors as a novel therapeutic strategy for the treatment of neonatal hypoxic-ischemic encephalopathy” (2024):

Tested on: Mus musculus
Assay: Neuroprotective activity against hypoxia-ischemia brain injured mouse model assessed as reduction in infarct volume at 20 mg/kg, ip measured after 72 hrs by immuno-histochemistry based staining analysis relative to control
Assay type: functional
Set-up: scale not given: the % may be the effect or the level left

Compound: Oc1cccnc1NC(c1ccc(Cl)cc1)c1ccc2cccnc2c1O (stereo unspecified)
- Activity: 26.3%
